# Key:
# human 20S proteasome β1 = biological target: T1, human 20S proteasome β1 (Homo sapiens, UniProt P28072); test: 20S Proteasome Assay, β1 selective substrate (Z-LLE-AMC); type: biochemical; settings: typically tested as mannitol esters; for inhibition at 0.41 µM: concentration 0.41 μM; for inhibition at 0.33 µM: concentration 0.33 μM
# T1 construct: purchased Boston Biochem
# Procedure: (§1) β1 Selective substrate: To 1 μL of test compound dissolved in DMSO in a 384-well microtiter plate is added 25 μL of assay buffer at 37° C. containing human PA28 activator (Boston Biochem, 12 nM final) with Z-LLE-AMC ([…]1 selective substrate) (15 μM final), followed by 25 μL of assay buffer at 37° C. containing human 20S proteasome (Boston Biochem, 0.25 nM final). Assay buffer is composed of 20 mM HEPES, 0.5 mM EDTA and 0.01% BSA, pH7.4. The reaction is followed on a BMG Galaxy plate reader (37° C., excitation 380 nm, emission 460 nm, gain 20). Percent inhibition is calculated relative to 0% inhibition (DMSO) and 100% inhibition (10 μM bortezomib) controls. Compound of formula (I) are typically tested in this assay as their mannitol esters (prepared as described above). The mannitol esters are hydrolyzed to the free active boronic acid species.
# human 20S proteasome β5 = biological target: T2, human 20S proteasome β5 (Homo sapiens, UniProt P28074); test: 20S Proteasome Assay, β5 selective substrate (Ac-WLA-AMC); type: biochemical; settings: concentration 0.41 μM; typically tested as mannitol esters
# T2 construct: purchased Boston Biochem
# Procedure: as §1, with “β5” for “β1”, “384-well black” for “384-well”, “Ac-WLA-AMC (β5” for “Z-LLE-AMC ([…]1”
inhibition at 0.41 µM (human 20S proteasome β1) [%],inhibition at 0.41 µM (human 20S proteasome β5) [%],inhibition at 0.33 µM (human 20S proteasome β1) [%],Structure (SMILES)
67.2,91.8,–,"O=C(N[C@@H](CC1CC1)B(O)O)[C@H](Cc1ccccc1)NS(=O)(=O)c1ccc(Oc2ccccn2)cc1 [Compound 1, ((1R)-2-cyclopropyl-1-{[(2S)-3-phenyl-2-({[4-(pyridin-2-yloxy)phenyl]sulfonyl}amino)propanoyl]amino}ethyl)boronic acid]"
70.7,89,–,"O=C(N[C@@H](CC1CC1)B(O)O)[C@H](Cc1ccccc1)NS(=O)(=O)c1ccc(Oc2cccnc2)cc1 [Compound 2, ((1R)-2-cyclopropyl-1-{[(2S)-3-phenyl-2-({[4-(pyridin-3-yloxy)phenyl]sulfonyl}amino)propanoyl]amino}ethyl)boronic acid]"
73.2,89.8,–,"O=C(N[C@@H](CC1CC1)B(O)O)[C@H](Cc1ccccc1)NS(=O)(=O)c1ccc2ncsc2c1 [Compound 4, [(1R)-1-({(2S)-2-[(1,3-benzothiazol-6-ylsulfonyl)amino]-3-phenylpropanoyl}amino)-2-cyclopropylethyl]boronic acid]"
65.4,92.9,–,"O=C(N[C@@H](CC1CC1)B(O)O)[C@H](Cc1ccccc1)NS(=O)(=O)c1ccc(-c2cnco2)cc1 [Compound 6, ((1R)-2-cyclopropyl-1-{[(2S)-2-({[4-(1,3-oxazol-5-yl)phenyl]sulfonyl}amino)-3-phenylpropanoyl]amino}ethyl)boronic acid]"
81.3,93,–,"O=C(N[C@@H](CC1CC1)B(O)O)[C@H](Cc1ccccc1)NS(=O)(=O)c1cccc(Oc2ccc(C(F)(F)F)cn2)c1 [Compound 7, {(1R)-2-cyclopropyl-1-[((2S)-3-phenyl-2-{[(3-{[5-(trifluoromethyl)pyridin-2-yl]oxy}phenyl)sulfonyl]amino}propanoyl)amino]ethyl}boronic acid]"
–,93.3,91.1,"O=C(N[C@@H](Cc1ccccc1)C(=O)N[C@@H](CC1CC1)B(O)O)c1cc(Cl)ccc1Cl [Compound 9, [(1R)-2-cyclopropyl-1-({(2S)-2-[(2,5-dichlorobenzoyl)amino]-3-phenylpropanoyl}amino)ethyl]boronic acid]"
–,81.9,93,"O=C(N[C@@H](Cc1ccccc1)C(=O)N[C@@H](CC1CC1)B(O)O)c1cnccn1 [Compound 12, [(1R)-2-cyclopropyl-1-({(2S)-3-phenyl-2-[(pyrazin-2-ylcarbonyl)amino]propanoyl}amino)ethyl]boronic acid]"
66.7,83.7,–,"CN1C(=O)Cc2cc(S(=O)(=O)N[C@@H](Cc3ccccc3)C(=O)N[C@@H](CC3CC3)B(O)O)ccc21 [Compound 13, {(1R)-2-cyclopropyl-1-[((2S)-2-{[(1-methyl-2-oxo-2,3-dihydro-1H-indol-5-yl)sulfonyl]amino}-3-phenylpropanoyl)amino]ethyl}boronic acid]"
75.7,93.1,–,"O=C(N[C@@H](CC1CC1)B(O)O)[C@H](Cc1ccccc1)NS(=O)(=O)c1ccc(Oc2ccncc2)cc1 [Compound 14, ((1R)-2-cyclopropyl-1-{[(2S)-3-phenyl-2-({[4-(pyridin-4-yloxy)phenyl]sulfonyl}amino)propanoyl]amino}ethyl)boronic acid]"
77.1,90.3,–,"O=C1COc2cc(S(=O)(=O)N[C@@H](Cc3ccccc3)C(=O)N[C@@H](CC3CC3)B(O)O)c(Cl)cc2N1 [Compound 15, {(1R)-1-[((2S)-2-{[(6-chloro-3-oxo-3,4-dihydro-2H-1,4-benzoxazin-7-yl)sulfonyl]amino}-3-phenylpropanoyl)amino]-2-cyclopropylethyl}boronic acid]"
82.7,90.8,–,"O=C(c1cccc(S(=O)(=O)N[C@@H](Cc2ccccc2)C(=O)N[C@@H](CC2CC2)B(O)O)c1)c1ccccn1 [Compound 16, ((1R)-2-cyclopropyl-1-{[(2S)-3-phenyl-2-({[3-(pyridin-2-ylcarbonyl)phenyl]sulfonyl}amino)propanoyl]amino}ethyl)boronic acid]"
71.9,89.7,–,"O=C(N[C@@H](CC1CC1)B(O)O)[C@H](Cc1ccccc1)NS(=O)(=O)c1cccc2cnccc12 [Compound 17, [(1R)-2-cyclopropyl-1-({(2S)-2-[(isoquinolin-5-ylsulfonyl)amino]-3-phenylpropanoyl}amino)ethyl]boronic acid]"

# Reference: patent US9023832B2, “Derivatives of 1-amino-2-cyclopropylethylboronic acid” (Millennium Pharmaceuticals, Inc., priority 2010, dated 2015)
